Test [1] deals with LPS-activated primary peritoneal macrophages. The test is described as follows: IL-6 and TNF-α secretion by ELISA. It counts as cell-based, C57BL/6 mice. To be noted: 10-40 µM, LPS 1 µg/ml 24 h. The method, then: The effects of the test samples on IL-1β, TNF-α, and IL-6 production were measured by ELISA according to the manufacturer’s instructions. In brief, 50 µl of biotinylated antibody reagent and 50 µl of supernatant were added to a stripwell plate precoated with anti-mouse IL-1β, TNF-α, or IL-6 antibodies, which was then incubated at room temperature for 2 h. After washing the plate three times with washing buffer, 100 µl of diluted streptavidin-HRP concentrate was added to each well and the plate incubated at room temperature for 30 min. […] After addition of 100 µl of stop solution to each well, the absorbance at 450 nm of each well was measured on a microplate reader.
Figure 3 Effect of compound 1h on LPS-induced secretion of IL-6 and TNF-α by J774A.1 macrophages, peritoneal macrophages, and JAWSII dendritic cells. (A) J774A.1 macrophages, (B) peritoneal macrophages, or (C) JAWSII dendritic cells (all 4 × 10^5/ml; 1 ml) were incubated for 30 min with 10-40 µM compound 1h or DMSO, then LPS (1 µg/ml) was added and incubation continued for 24 h, then IL-6 levels (left panels) and TNF-α levels (right panels) in the culture medium were measured by ELISA. The data are expressed as the mean ± SD for three separate experiments. *, **, and *** indicate a significant difference at the level of p < 0.05, p < 0.01, or p < 0.001, respectively, compared to the DMSO/LPS group.

For test [2], the system named is NLRP3 inflammasome in LPS+ATP-activated J774A.1 macrophages. Put plainly: NLRP3 inflammasome activation (IL-1β ELISA, caspase-1 p10 Western blot). In kind it is cell-based, mouse. The following applies: then ATP 5 mM 30 min. The method, then:
The effects of the test samples on IL-1β, TNF-α, and IL-6 production were measured by ELISA according to the manufacturer’s instructions. In brief, 50 µl of biotinylated antibody reagent and 50 µl of supernatant were added to a stripwell plate precoated with anti-mouse IL-1β, TNF-α, or IL-6 antibodies, which was then incubated at room temperature for 2 h. After washing the plate three times with washing buffer, 100 µl of diluted streptavidin-HRP concentrate was added to each well and the plate incubated at room temperature for 30 min. The washing process was repeated, then 100 µl of a premixed tetramethylbenzidine substrate solution was added to each well and the plate incubated at room temperature in the dark for 30 min. After addition of 100 µl of stop solution to each well, the absorbance at 450 nm of each well was measured on a microplate reader.
Cells were washed twice with ice-cold phosphate-buffered saline (PBS) and lysed on ice for 5 min with lysis buffer (20 mM Tris-HCl, pH 7.5, 150 mM NaCl, 1 mM Na 2EDTA, 1 mM EGTA, 1% Triton X-100, 2.5 mM sodium pyrophosphate, 1 mM beta-glycerophosphate, 1 mM Na 3VO4, 1 µg/ml of leupeptin, 1 mM PMSF, protease inhibitor cocktail). The lysate was then centrifuged at 12,000 x g at 4 °C for 10 min and the pellet discarded. Proteins in the supernatant were separated by SDS-PAGE and electrotransferred to a PVDF membrane (EMD Millipore Corporation), which was then blocked by incubation for 1 h at room temperature in blocking buffer [(5% nonfat milk in PBS containing 0.1% Tween 20 (PBST)], then incubated for 2 h at room temperature with the primary antibody diluted in blocking buffer. After three washes in PBST, the membrane was incubated for 1 h at room temperature with an appropriate HRP-conjugated secondary antibody diluted in blocking buffer and developed using an enhanced chemiluminescence Western blot detection system (EMD Millipore Corporation).
ATP is known to activate the NLRP3 inflammasome in LPS-primed macrophages, leading to caspase-1 activation and IL-1β secretion. To examine whether compound 1h could affect NLRP3 inflammasome activation, the mouse macrophage cell line J774A.1 was used (RAW 264.7 macrophages are not suitable for studying the NLRP3 inflammasome). […]
Figure 4 Effect of compound 1h on NLRP3 inflammasome activation in LPS+ATP-activated J774A.1 macrophages. (A) J774A.1 macrophages (1 × 10^6/ml; 1 ml) or (B) peritoneal macrophages (1 × 10^5/ml; 1 ml) were incubated with 10-40 µM compound 1h or DMSO for 30 min, then LPS (1 µg/ml) was added and incubation continued for 5.5 h, then the cells were stimulated with ATP (5 mM) for an additional 30 min, then IL-1β in the culture medium was measured by ELISA (A, upper panel; B) and levels of active caspase-1 (p10) (A, lower panel) measured by Western blotting. In (C) and (D), J774A.1 macrophages (1 × 10^6/ml; 1ml) were incubated with LPS (1 µg/ml) for 5.5 h, then with 10-40 µM compound 1h or DMSO for 30 min in the continued presence of LPS, followed by stimulation with ATP (5 mM) for an additional 30 min, then IL-1β levels (C, upper panel) and IL-6 levels (D) in the culture medium were measured by ELISA and levels of active caspase-1 (p10) were measured by Western blotting (C, lower panel). […] In (E), J774A.1 macrophages (1 × 10^6/ml; 1 ml) were incubated for 30 min with DMSO or 1-40 µM compound 1h, then LPS (1 µg/ml) was added and incubation continued for 6 h, then expression of NLRP3 and proIL-1β was measured by Western blotting. […]

Setting [3] is: J774A.1, LPS 5.5 h first, then compound 10-40 µM 30 min.
The mark [4] stands for this setting: J774A.1, compound 10-40 µM 30 min before LPS 5.5 h.

On to `O=c1cc(O)cc(/C=C/C=C/C=C/C=C/c2[nH]ccc2Cl)o1` [compound 1h], for which, in test [1], the “LPS-induced IL-6 secretion” value is “reduced secretion of IL-6 and TNF-α”; the “LPS-induced TNF-α secretion” value was “reduced secretion of IL-6 and TNF-α”. In test [2] (setting [3]), the “Caspase-1 activation (p10)” value is reported as “not caspase-1 activation”, the IL-1β secretion result is recorded as “inhibited the LPS-induced increase in IL-1β secretion” and the IL-6 secretion entry is reported as “had no significant effect on IL-6 secretion”. In test [2] (setting [4]), the “Generation of active caspase-1 (p10)” value is listed as “significantly inhibited” and the IL-1β secretion result is listed as “significantly inhibited IL-1β secretion”.

Source of the values: paper PMC3792051, “Polyenylpyrrole Derivatives Inhibit NLRP3 Inflammasome Activation and Inflammatory Mediator Expression by Reducing Reactive Oxygen Species Production and Mitogen-Activated Protein Kinase Activation” (PLoS ONE, 2013).
